Assay results reported in patent US12522587B2, “Cancer treatments targeting cancer stem cells” (Remedy Plan, Inc., priority 2018, dated 2026).
pIC50: −log10 of the molar value. Where two headings read alike, the source gives them in different places.

What was measured:
MV-4-11 cells = assay: Cell viability in MV-4-11 cells (CellTiter Glo2, 4 days); assay type: cell-based; settings: Homo sapiens, MV4-11, 96 h
Protocol: Approximately 10,000 MV-4-11 cells per well of a 96-well plate were treated with DMSO (no drug control) or each compound in Table 6 in an 8-point dose response for 4 days. Cell viability was measured using CellTiter Glo2. The IC50 of each compound was determined using CDD Vault.

RS4;11 cells = assay: Cell viability in RS4;11 cells (CellTiter Glo2, 4 days); assay type: cell-based; settings: Homo sapiens, 96 h
Protocol: Approximately 10,000 RS4;11 cells per well of a 96-well plate were treated with DMSO (no drug control) or each compound in Table 6 in an 8-point dose response for 4 days. Cell viability was measured using CellTiter Glo2. The IC50 of each compound was determined using CDD Vault.

AGS cells = assay: Cell viability in AGS cells (CellTiter Glo2, 8-point dose response, 4 days); assay type: cell-based, human
Protocol: AGS cells were treated with DMSO (no drug control) or each compound in Table 5 in an 8-point dose response for 4 days. Cell viability was measured using CellTiter Glo2. The IC50 of each compound was determined using CDD Vault.

| SMILES | pIC50 (MV-4-11 cells) | pIC50 (RS4;11 cells) | pIC50 (AGS cells; Homo sapiens, AGS, 96 h) | pIC50 (AGS cells) |
| --- | --- | --- | --- | --- |
| CCC(=O)N(C)c1ccc(-c2nc(C(=O)NCc3cccnc3)cs2)cc1 [Compound I-241, 2-(4-(N-methylpropionamido)phenyl)-N-(pyridin-3-ylmethyl)thiazole-4-carboxamide] | 5.41 | 4.98 | < 4.52 |  |
| CCC(=O)N(C)c1ccc(-c2ccc(C(=O)NCc3cccnc3)cc2)c(Cl)c1 [Compound I-224, 2′-chloro-4′-(N-methylpropionamido)-N-(pyridin-3-ylmethyl)-[1,1′-biphenyl]-4-carboxamide] | 5.96 | 5.27 | 5.83 |  |
| CCC(=O)N1CCc2cc(-c3ccc(C(=O)NCc4cccnc4)cc3)ccc21 [Compound I-43, 4-(1-propionylindolin-5-yl)-N-(pyridin-3-ylmethyl) benzamide] | 5.53 | 6.22 | 5.61 | 5.63 |
| CC(=O)N(C)c1ccc(-c2ccc(C(=O)NCc3cccnc3)nc2)cc1 [Compound I-202, 5-(4-(N-methylacetamido)phenyl)-N-(pyridin-3-ylmethyl)picolinamide] | 5.83 | 5.59 | 4.99 | 4.76 |
| CCOC(=O)N(C)c1ccc(-c2ccc(C(=O)NCc3cccnc3)cc2)cc1 [Compound I-231, ethyl methyl(4′-((pyridin-3-ylmethyl)carbamoyl)-[1,1′-biphenyl]-4-yl)carbamate] | 6.13 | 5.53 | 5.47 |  |
| CCC(=O)N1CCc2c1ccc(-c1ccc(C(=O)NCc3cccnc3)cc1)c2C [Compound I-80, 4-(4-methyl-1-propionylindolin-5-yl)-N-(pyridin-3-ylmethyl)benzamide] | 6.25 | 6.05 | 6.31 | 6.19 |

Further compounds by rising pIC50 (MV-4-11 cells), results first:

| pIC50 (MV-4-11 cells) | pIC50 (RS4;11 cells) | pIC50 (AGS cells; Homo sapiens, AGS, 96 h) | pIC50 (AGS cells) | SMILES |
| --- | --- | --- | --- | --- |
| 4.98 | 5.31 | < 4.77 | < 4.77 | CCC(=O)N1CCc2cc(-c3ccc(C(=O)NCc4cccnc4)cn3)ccc21 [Compound I-54, 6-(1-propionylindolin-5-yl)-N-(pyridin-3-ylmethyl)nicotinamide] |
| 5.91 | 6.64 | 5.89 |  | CCC(=O)N(C)c1ccc(-c2ccc(C(=O)NCc3cccnc3)cn2)cc1C [Compound I-232, 6-(3-methyl-4-(N-methylpropionamido)phenyl)-N-(pyridin-3-ylmethyl)nicotinamide] |
| 6.17 | 6.57 | 5.98 | 5.99 | CCC(=O)N1CCc2cc(-c3ccc(C(=O)NCc4cccnc4)cc3)cc(C)c21 [Compound I-17, 4-(7-methyl-1-propionylindolin-5-yl)-N-(pyridin-3-ylmethyl)benzamide] |
| 6.21 | 6.63 | 5.96 |  | CCC(=O)N(C)c1ccc(-c2ccc(C(=O)NCc3cccnc3)cc2)cc1Cl [Compound I-225, 3′-chloro-4′-(N-methylpropionamido)-N-(pyridin-3-ylmethyl)-[1,1′-biphenyl]-4-carboxamide] |
| 6.66 | 6.16 | 5.35 | 5.37 | CCC(=O)N(C)c1ccc(-c2ccc(C(=O)NCc3cccnc3)cc2)cc1 [Compound I-45, 4′-(N-methylpropionamido)-N-(pyridin-3-ylmethyl)-[1,1′-biphenyl]-4-carboxamide] |
